In patent US20120165339A1, “CYCLOPROPANE DERIVATIVES” (EISAI R&D MANAGEMENT CO., LTD., priority 2010, published 2012) one finds IC50 data, which are given here for 28 compounds.

The target in one assay is T1, OX1 (Homo sapiens, UniProt O43613).
T1 sequence (O43613 1-425): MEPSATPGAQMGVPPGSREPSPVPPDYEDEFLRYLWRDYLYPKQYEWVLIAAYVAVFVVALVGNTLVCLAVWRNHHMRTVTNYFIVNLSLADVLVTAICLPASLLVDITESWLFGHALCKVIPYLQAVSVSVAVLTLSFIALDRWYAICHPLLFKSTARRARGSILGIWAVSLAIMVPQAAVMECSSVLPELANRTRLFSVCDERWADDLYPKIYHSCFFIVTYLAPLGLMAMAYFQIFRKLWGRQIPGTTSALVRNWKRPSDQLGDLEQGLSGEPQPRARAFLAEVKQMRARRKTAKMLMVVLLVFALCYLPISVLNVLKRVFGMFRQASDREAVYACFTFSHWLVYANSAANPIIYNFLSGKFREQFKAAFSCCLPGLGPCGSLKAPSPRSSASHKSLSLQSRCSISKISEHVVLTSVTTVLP
As to the kind of experiment: Orexin-receptor binding ability, [125I]-OX-A, CHO cell membranes expressing OX1. Also noted: expressed in transfected cells; host or cells: CHO cells (membrane preparation). Conditions: membranes of recombinant CHO cells, 0.2 nM [125I]-OX-A tracer; read-out: OX1 (IC50). As to the method:
(§1) The assay was carried out using a 96-well Wheat Germ Agglutinin Flash Plate (PerkinElmer). The volume in a single assay well was 100 ul, and the composition of the reaction solution was as follows:
(§2) 25 mM HEPES (pH 7.5), 1 mM CaCl2, 4.5 mM MgCl2, 0.5% BSA (bovine serum albumin), 0.1% sodium azide, 0.05% Tween-20, and 0.2% DMSO.
Cell membranes were prepared from recombinant CHO cells that expressed OX2 or OX1. The cell membranes were used in an amount of 5 μg protein/assay. […] Finally, the radioactivity of each well was measured using a scintillation counter (TopCount, PerkinElmer). The obtained results are shown in terms of IC50 values (nM) in the following table.

A further assay concerns the target T2, OX2 (Homo sapiens, UniProt O43614).
T2 sequence (O43614 1-444): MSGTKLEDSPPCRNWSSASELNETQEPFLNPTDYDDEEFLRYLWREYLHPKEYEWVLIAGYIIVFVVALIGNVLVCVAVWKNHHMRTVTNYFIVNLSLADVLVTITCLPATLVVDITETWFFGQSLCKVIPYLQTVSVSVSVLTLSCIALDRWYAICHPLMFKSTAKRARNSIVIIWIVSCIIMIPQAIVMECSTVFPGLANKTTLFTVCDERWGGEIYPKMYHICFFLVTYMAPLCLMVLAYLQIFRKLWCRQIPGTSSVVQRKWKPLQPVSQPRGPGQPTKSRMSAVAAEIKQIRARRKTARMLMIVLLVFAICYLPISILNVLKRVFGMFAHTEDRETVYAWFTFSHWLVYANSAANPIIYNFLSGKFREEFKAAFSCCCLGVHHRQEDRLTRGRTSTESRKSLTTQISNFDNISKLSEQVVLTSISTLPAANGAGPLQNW
Put plainly: Orexin-receptor binding ability, [125I]-OX-A, CHO cell membranes expressing OX2. More on the design: expressed in transfected cells; host or cells: CHO cells (membrane preparation). The note with it: membranes of recombinant CHO cells, 0.2 nM [125I]-OX-A tracer; read-out: OX2 (IC50). As for the experimental part: as §1, §2
Cell membranes were prepared from recombinant CHO cells that expressed OX2 or OX1. The cell membranes were used in an amount of 5 μg protein/assay. Test compound in various concentrations, and 0.2 nM [^125I]-OX-A as tracer were added to the cell membranes, and then allowed to react at room temperature for 30 minutes. After completion of the reaction, the reaction solution as a whole was discarded, and the wells were then washed once with 200 ul of wash buffer (25 mM HEPES (pH 7.5), 1 mM CaCl2, 5 mM MgCl2, 0.5% BSA, 0.1% sodium azide, 0.05% Tween-20, and 525 mM sodium chloride). Finally, the radioactivity of each well was measured using a scintillation counter (TopCount, PerkinElmer). The obtained results are shown in terms of IC50 values (nM) in the following table.

Take `COc1cn(CCC2(c3ccccc3)CC2C(=O)Nc2ccc(Cl)cn2)ccc1=O` (stereo not shown) [Example 117]: the concentration for half-maximal inhibition (IC50) (commonly the point on the concentration scale where inhibition reaches its midpoint) at OX1 came out at 456 nM; on OX2, 46 nM.
Regarding `Cc1nc(C(F)F)nn1CC[C@@]1(c2ccccc2)C[C@H]1C(=O)Nc1ccc(C#N)cn1` [Example 112], on OX2, the IC50 was found to be 33 nM.
On to `Cc1cnc(OC[C@@]2(c3ccccc3)C[C@H]2C(=O)Nc2ccc(F)cn2)c(C)n1` [Example 65], for which the results for the IC50 on OX1 and on OX2 were 57 nM and 26 nM, respectively.
For `CCn1cc(OC[C@@]2(c3cccc(F)c3)C[C@H]2C(=O)Nc2ccnc(F)c2)c(C)n1` [Example 91], the half-maximal inhibitory concentration (IC50) on OX1 is greater than 200 nM; on OX2 it was 93 nM.
Taken in the same sequence, the figures for `Cc1nc(C(F)F)nn1CC[C@@]1(c2ccccc2)C[C@H]1C(=O)Nc1ccc(F)cc1` [Example 111] were 655 nM and 41 nM.
In the same order, the values of `Cc1nc(C2CC2)nn1CC[C@@]1(c2ccccc2)C[C@H]1C(=O)Nc1ccc(C#N)cn1` [Example 127] are 266 nM and 23 nM.
In the same order, the values of `Cc1cnc(OC[C@@]2(c3ccccc3)C[C@H]2C(=O)Nc2ccc(Cl)cn2)c(C)n1` [Example 67] are 33 nM and 7 nM.
With `CCn1cc(OC[C@@]2(c3cccc(F)c3)C[C@H]2C(=O)Nc2ccc(F)cn2)c(C)n1` [Example 87], the values for the IC50 on OX1 and on OX2 were 136 nM and 21 nM, respectively.
In the same order, the values of `CCn1cc(OC[C@@]2(c3cccc(F)c3)C[C@H]2C(=O)Nc2ccc(F)cn2)c(C)n1` [Example 86] are 15 nM and 5 nM.
In the same order, the values of `CCn1cc(OC[C@@]2(c3ccccc3)C[C@H]2C(=O)Nc2ccc(F)cc2)c(C)n1` [Example 71] are 1310 nM and 45 nM.
In the same order, the values of `Cc1nn(C)cc1OCC1(c2ccccc2)CC1C(=O)Nc1ccc(Cl)cn1` (stereo not shown) [Example 83] are 682 nM and 15 nM.
In the case of `CCn1cc(OC[C@@]2(c3cccc(F)c3)C[C@H]2C(=O)Nc2ccccn2)c(C)n1` [Example 85], the IC50 on OX1 is 59 nM; on OX2, 8 nM.
For `CCn1cc(OC[C@@]2(c3ccccc3)C[C@H]2C(=O)Nc2ccccn2)c(C)n1` [Example 69], the values for the IC50 at OX1 and at OX2 were 2130 nM and 69 nM, respectively.
In the same order, the values of `Cc1cc(NC(=O)[C@@H]2C[C@@]2(CCn2nc(C(F)F)nc2C)c2ccccc2)ncc1F` [Example 108, (1R,2S)-2-[2-(3-difluoromethyl-5-methyl-1H-1,2,4-triazol-1-yl)ethyl]-N-(5-fluoro-4-methylpyridin-2-yl)-2-phenylcyclopropanecarboxamide] are 101 nM and 6 nM.
Taken in the same sequence, the figures for `Cc1nc(C(F)F)nn1CC[C@@]1(c2ccccc2)C[C@H]1C(=O)Nc1ccc(Cl)cn1` [Example 110] were 196 nM and 36 nM.
In the same order, the values of `Cc1cnc(OC[C@@]2(c3ccccc3)C[C@H]2C(=O)Nc2ccc(C#N)cn2)c(C)n1` [Example 66] are 74 nM and 21 nM.
For `CCn1cc(OC[C@@]2(c3cccc(F)c3)C[C@H]2C(=O)Nc2ccc(F)cc2)c(C)n1` [Example 88], the concentration for half-maximal inhibition (IC50) at OX1 amounted to 84 nM; at OX2, 12 nM.
For the compound `Cc1csc(NC(=O)[C@@H]2C[C@@]2(CCn2nc(C(F)(F)F)nc2C)c2ccccc2)n1` [Example 124], the IC50 at OX1 came to 2250 nM; at OX2, 55 nM.
In the same order, the values of `Cc1nc(C(F)F)nn1CC[C@@]1(c2ccccc2)C[C@H]1C(=O)Nc1ccc(F)cn1` [Example 109] are 1330 nM and 71 nM.
Taken in the same sequence, the figures for `CCn1nc(C)c(OC[C@@]2(c3ccccc3)C[C@H]2C(=O)Nc2ccc(F)cc2)cc1=O` [Example 98] were 132 nM and 55 nM.
In the same order, the values of `Cc1nn(C)c(=O)cc1OC[C@@]1(c2ccccc2)C[C@H]1C(=O)Nc1ccc(Cl)cn1` [Example 95] are 1600 nM and 59 nM.
Regarding `Cc1nn(C)c(=O)cc1OC[C@@]1(c2ccccc2)C[C@H]1C(=O)Nc1ccc(F)cc1` [Example 93, (1R,2S)-2-[(1,3-dimethyl-6-oxo-1,6-dihydropyridazin-4-yl)oxymethyl]-N-(4-fluorophenyl)-2-phenylcyclopropanecarboxamide], the values for the IC50 at OX1 and on OX2 were 410 nM and 27 nM, respectively.
For the compound `CCn1cc(OC[C@@]2(c3cccc(F)c3)C[C@H]2C(=O)Nc2ccc(C#N)cn2)c(C)n1` [Example 90], the results for the 50% inhibitory concentration (IC50) at OX1 and on OX2 were 13 nM and 8 nM, respectively.
As to `COc1cncc(NC(=O)[C@@H]2C[C@@]2(COc2cc(=O)n(C)nc2C)c2ccccc2)c1` [Example 92, (1R,2S)-2-[(1,3-dimethyl-6-oxo-1,6-dihydropyridazin-4-yl)oxymethyl]-N-(5-methoxypyridin-3-yl)-2-phenylcyclopropanecarboxamide], the IC50 turned out to be 1360 nM at OX1 and 5 nM on OX2.
Taken in the same sequence, the figures for `COc1nc(C)n(CCC2(c3ccccc3)CC2C(=O)Nc2ccc(Cl)cn2)n1` (stereo not shown) [Example 116] were greater than 2000 nM and 89 nM.
Taken in the same sequence, the figures for `Cc1cc(NC(=O)[C@@H]2C[C@@]2(COc2cc(=O)n(C)nc2C)c2ccccc2)ncc1F` [Example 94] were 771 nM and 39 nM.
In the same order, the values of `CCn1cc(OC[C@@]2(c3cccc(F)c3)C[C@H]2C(=O)Nc2cc(OC)c(F)cn2)c(C)n1` [Example 89] are greater than 200 nM and 93 nM.
For `CCn1cc(CCC2(c3ccccc3)CC2C(=O)Nc2ccc(Cl)cn2)cn1` (stereo not shown) [Example 102], the figures for the IC50 on OX1 and on OX2 were 364 nM and 22 nM, respectively.
